Measurements as given in patent US20220135571A1, “THERAPEUTIC EGFR INHIBITORS” (Hoffmann-La Roche Inc., priority 2019, published 2022).
pIC50: −log10 of the molar value. Counter-ions that a name gives are not always drawn.

How the values were obtained:
[1] = target: T1, EGFR TMLR (T790M/L858R), H1975 cell line (Homo sapiens, UniProt P00533, L858R/T790M); test: HTRF Phospho EGFR TMLR Assay (Cellular); format: cell-based; details: H1975 cells, 16 hours compound incubation
T1 construct: H1975 cell line (CRL-5908; Lot BA70803) was obtained from American Type Culture Collection; host or cells: H1975
Method: HTRF Phospho EGFR TMLR Assay (Cellular)
H1975 cell line (CRL-5908; Lot BA70803) was obtained from American Type Culture Collection (Manassas, Va., USA). Cells were maintained at 37° C., 5% CO2 in complete Media RPMI 1640 without phenol red containing 0.3 mg/ml glutamine, 100 IU/ml penicillin, and […] streptomycin (Gibco, 15140-122) supplemented with 10% fetal bovine serum (FBS, Gibco, 10091-148). Compounds were diluted into starving medium RPMI 1640 Media (Gibco, 11835-030) without phenol red containing 0.3 mg/ml glutamine, 100 IU/ml penicillin, and […] streptomycin (Gibco).
Cells were cultured for 24 h in a 384-well plate (Greiner Bio-One, Nr. 784-080; 5000 cells/well) using 8 μl of complete medium/well. Then 4 µl/well of the 3× compound solution, containing a factor 3 dilution series of the compound or DMSO in starving medium, were added to the cells (final DMSO 0.33%). After 16 hours at 37° C., 5% CO2, 95% rel. humidity cells were lysed by adding to the compound mix 4 µl/well of the supplemented lysis buffer (Cis-bio, Phospho-EGFR HTRF kit, 64EG1PEH), followed by incubation for 30 min at room temperature with shaking (400 rpm). Then 4 μl of a mixture of anti-Phospho-EGFR Cryptate and of anti-Phospho-EGFR-d2 antibody solutions prepared in the detection buffer was added. The plates were then incubated for 4 h at room temperature before reading the fluorescence emission at 620 and 665 nm using an Envision reader (Perkin Elmer).

[2] = target: T2, EGFR TMLRCS (T790M/L858R/C797S), BaF3-TMLRCS cell line (Homo sapiens, UniProt P00533, C797S/L858R/T790M); test: HTRF Phospho EGFR TMLRCS Assay (Cellular); format: cell-based; details: BaF3-TMLRCS cells, 4 hours compound incubation
T2 construct: host or cells: BaF3
Method: HTRF Phospho EGFR TMLRCS Assay (Cellular)
BaF3-TMLRCS cell line were obtained from Crownbio (San Diego, Calif., USA). Cells were maintained at 37° C., 5% CO2 in RPMI ATCC (Gibco 31870)+2 mM Glutamine+0.5 μg/ml Puromycin supplemented with 10% fetal bovine serum (FBS) (Gibco).
Cells are transferred as above to Greiner Bio-One, Nr. 784-08 micro-titerplate at 20000 cells/well in 12.5 μl of growth medium/well after the plates had been pre-filled with 12.5 nl of DMSO solutions of the to be tested compounds (in dose response) or DMSO only. After spinning the plates at 300×g for 30 seconds the cells were incubated for 4 hours at 37 C, 5% CO2, 95% humidity. The cells were lysed by adding to the compound mix 4 µl/well of the supplemented lysis buffer (Cis-bio, Phospho-EGFR HTRF kit, 64EG1PEH), followed by incubation for 30 min at room temperature with shaking (400 rpm). The plates were then frozen and stored overnight at −80 C. On the next day and after thawing the plates, 4 μl of a mixture of anti-Phospho-EGFR Cryptate and of anti-Phospho-EGFR-d2 antibody solutions prepared in the supplied detection buffer was added to each well. The lidded plates were then incubated for 4 h at room temperature before reading the fluorescence emission at 616 and 665 nm using an Envision reader (Perkin Elmer). Data was analyzed in similar fashion as above using the normalized ratio of the 665 to 616 signals multiplied by 10000.

T1 sequence (P00533 25-1210 T790M/L858R): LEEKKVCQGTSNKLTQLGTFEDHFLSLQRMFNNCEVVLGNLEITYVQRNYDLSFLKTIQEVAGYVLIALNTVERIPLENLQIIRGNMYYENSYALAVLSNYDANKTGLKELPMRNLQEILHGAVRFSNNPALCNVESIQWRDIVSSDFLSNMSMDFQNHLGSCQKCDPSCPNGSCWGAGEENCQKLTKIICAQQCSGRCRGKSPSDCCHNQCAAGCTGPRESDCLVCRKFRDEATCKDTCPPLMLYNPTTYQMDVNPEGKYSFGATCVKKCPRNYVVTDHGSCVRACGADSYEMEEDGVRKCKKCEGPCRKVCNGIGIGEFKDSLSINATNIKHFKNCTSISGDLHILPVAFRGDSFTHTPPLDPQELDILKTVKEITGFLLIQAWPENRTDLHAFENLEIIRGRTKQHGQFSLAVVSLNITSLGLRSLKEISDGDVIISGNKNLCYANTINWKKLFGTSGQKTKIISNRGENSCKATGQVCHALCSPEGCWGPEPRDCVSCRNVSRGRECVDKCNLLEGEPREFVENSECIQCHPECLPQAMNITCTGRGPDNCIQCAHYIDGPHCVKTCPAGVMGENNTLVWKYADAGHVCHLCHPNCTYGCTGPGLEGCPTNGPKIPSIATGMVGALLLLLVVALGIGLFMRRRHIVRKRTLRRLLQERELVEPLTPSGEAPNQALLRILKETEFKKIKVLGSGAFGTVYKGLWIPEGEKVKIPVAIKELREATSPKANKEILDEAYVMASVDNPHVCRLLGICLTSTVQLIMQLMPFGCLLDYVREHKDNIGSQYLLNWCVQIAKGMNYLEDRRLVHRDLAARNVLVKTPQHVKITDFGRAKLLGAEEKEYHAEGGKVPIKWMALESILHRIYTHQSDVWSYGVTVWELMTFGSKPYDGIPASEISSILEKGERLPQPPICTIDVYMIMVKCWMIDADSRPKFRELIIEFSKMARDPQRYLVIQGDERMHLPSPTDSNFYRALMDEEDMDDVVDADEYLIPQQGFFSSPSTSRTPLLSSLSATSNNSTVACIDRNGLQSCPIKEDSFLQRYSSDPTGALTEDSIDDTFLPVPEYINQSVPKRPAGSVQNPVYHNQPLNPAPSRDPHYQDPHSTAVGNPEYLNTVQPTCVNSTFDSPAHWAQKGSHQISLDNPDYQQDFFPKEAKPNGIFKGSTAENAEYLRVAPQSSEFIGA
T2 sequence (P00533 25-1210 T790M/C797S/L858R): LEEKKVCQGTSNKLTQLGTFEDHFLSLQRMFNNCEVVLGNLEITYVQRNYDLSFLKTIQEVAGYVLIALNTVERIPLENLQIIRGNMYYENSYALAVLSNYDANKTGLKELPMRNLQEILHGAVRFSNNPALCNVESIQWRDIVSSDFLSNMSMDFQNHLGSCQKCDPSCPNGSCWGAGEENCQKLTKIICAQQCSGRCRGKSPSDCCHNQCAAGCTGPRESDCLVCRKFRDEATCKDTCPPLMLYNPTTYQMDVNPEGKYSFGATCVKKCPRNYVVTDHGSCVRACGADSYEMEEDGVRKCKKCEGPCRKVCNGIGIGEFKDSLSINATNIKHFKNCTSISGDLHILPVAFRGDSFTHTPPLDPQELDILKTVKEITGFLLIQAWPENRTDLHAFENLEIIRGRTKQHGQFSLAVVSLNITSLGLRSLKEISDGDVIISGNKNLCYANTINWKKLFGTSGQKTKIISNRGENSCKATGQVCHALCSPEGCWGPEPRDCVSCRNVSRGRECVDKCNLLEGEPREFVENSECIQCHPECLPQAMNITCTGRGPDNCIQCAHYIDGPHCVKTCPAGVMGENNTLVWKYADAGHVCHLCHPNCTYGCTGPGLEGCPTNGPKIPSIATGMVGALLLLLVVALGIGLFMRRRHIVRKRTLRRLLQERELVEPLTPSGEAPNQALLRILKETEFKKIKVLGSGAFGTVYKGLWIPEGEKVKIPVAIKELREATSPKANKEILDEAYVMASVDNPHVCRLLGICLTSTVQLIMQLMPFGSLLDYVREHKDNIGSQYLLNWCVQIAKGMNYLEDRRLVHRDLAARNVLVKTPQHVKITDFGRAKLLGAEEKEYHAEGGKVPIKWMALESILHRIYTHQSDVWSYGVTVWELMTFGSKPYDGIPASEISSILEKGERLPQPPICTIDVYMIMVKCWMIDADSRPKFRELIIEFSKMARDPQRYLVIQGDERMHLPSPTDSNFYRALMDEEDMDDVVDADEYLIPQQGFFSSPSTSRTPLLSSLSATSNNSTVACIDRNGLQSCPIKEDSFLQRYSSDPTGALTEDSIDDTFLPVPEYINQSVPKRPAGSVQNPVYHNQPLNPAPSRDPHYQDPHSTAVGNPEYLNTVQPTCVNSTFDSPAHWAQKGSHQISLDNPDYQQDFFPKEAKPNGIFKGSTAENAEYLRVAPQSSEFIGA

SMILES	pIC50 [1]	pIC50 [2]
O=C(Nc1nccs1)C(c1ncn2c1CCC2)n1cc2c(Cl)cc(-c3ccc(N4CCNCC4)cc3)cc2n1 (stereo not drawn) [Example 1, 2-(4-Chloro-6-(4-(piperazin-1-yl)phenyl)-2H-indazol-2-yl)-2-(6,7-dihydro-5H-pyrrolo[1,2-c]imidazol-1-yl)-N-(thiazol-2-yl)acetamide hydrochloride]	8.52	8.15
CC(=O)N1CCN(c2ccc(-c3cc(Cl)c4cn(C(C(=O)Nc5nccs5)c5ncn6c5CCC6)nc4c3)cc2)CC1 (stereo not drawn) [Example 2, 2-(6-(4-(4-Acetylpiperazin-1-yl)phenyl)-4-chloro-2H-indazol-2-yl)-2-(6,7-dihydro-5H-pyrrolo[1,2-c]imidazol-1-yl)-N-(thiazol-2-yl)acetamide]	9.40	8.30
O=C(Nc1nccs1)C(c1ncn2c1CCC2)n1cc2c(Cl)cc(-c3ccc(N4CCNCC4)c(Cl)c3)cc2n1 (stereo not drawn) [Example 3, 2-(4-Chloro-6-(3-chloro-4-(piperazin-1-yl)phenyl)-2H-indazol-2-yl)-2-(6,7-dihydro-5H-pyrrolo[1,2-c]imidazol-1-yl)-N-(thiazol-2-yl)acetamide hydrochloride]	8.05	
CCN1CCN(c2ccc(-c3cc(Cl)c4cn(C(C(=O)Nc5nccs5)c5ncn6c5CCC6)nc4c3)cc2Cl)CC1 (stereo not drawn) [Example 4, 2-(4-Chloro-6-(3-chloro-4-(4-ethylpiperazin-1-yl)phenyl)-2H-indazol-2-yl)-2-(6,7-dihydro-5H-pyrrolo[1,2-c]imidazol-1-yl)-N-(thiazol-2-yl)acetamide]	7.96	7.85
O=C(Nc1nccs1)C(c1ncn2c1C[C@@H](F)C2)n1cc2c(F)cc(-c3ccc(N4CCNCC4)c(Cl)c3)cc2n1 (stereo partly drawn) [Example 6, 2-(6-(3-Chloro-4-(piperazin-1-yl)phenyl)-4-fluoro-2H-indazol-2-yl)-2-((R)-6-fluoro-6,7-dihydro-5H-pyrrolo[1,2-c]imidazol-1-yl)-N-(thiazol-2-yl)acetamide hydrochloride]	8.52	
CC(=O)N1CCN(c2ccc(-c3cc(F)c4cn(C(C(=O)Nc5nccs5)c5ncn6c5C[C@@H](F)C6)nc4c3)cc2Cl)CC1 (stereo partly drawn) [Example 7, 2-(6-(4-(4-Acetylpiperazin-1-yl)-3-chlorophenyl)-4-fluoro-2H-indazol-2-yl)-2-((R)-6-fluoro-6,7-dihydro-5H-pyrrolo[1,2-c]imidazol-1-yl)-N-(thiazol-2-yl)acetamide]	9.00	
CCN1CCN(c2ccc(-c3cc(F)c4cn(C(C(=O)Nc5nccs5)c5ncn6c5C[C@@H](F)C6)nc4c3)cc2Cl)CC1 (stereo partly drawn) [Example 8, 2-(6-(3-Chloro-4-(4-ethylpiperazin-1-yl)phenyl)-4-fluoro-2H-indazol-2-yl)-2-((R)-6-fluoro-6,7-dihydro-5H-pyrrolo[1,2-c]imidazol-1-yl)-N-(thiazol-2-yl)acetamide]	8.30	
O=C(Nc1nccs1)C(c1ncn2c1CCC2)n1cc2c(Cl)cc(-c3ccc(N4CCNCC4)cc3)c(Cl)c2n1 (stereo not drawn) [Example 9, 2-(4,7-Dichloro-6-(4-(piperazin-1-yl)phenyl)-2H-indazol-2-yl)-2-(6,7-dihydro-5H-pyrrolo[1,2-c]imidazol-1-yl)-N-(thiazol-2-yl)acetamide hydrochloride]	8.70	
CC(=O)N1CCN(c2ccc(-c3cc(Cl)c4cn(C(C(=O)Nc5nccs5)c5ncn6c5CCC6)nc4c3Cl)cc2)CC1 (stereo not drawn) [Example 12, 2-(6-(4-(4-Acetylpiperazin-1-yl)phenyl)-4,7-dichloro-2H-indazol-2-yl)-2-(6,7-dihydro-5H-pyrrolo[1,2-c]imidazol-1-yl)-N-(thiazol-2-yl)acetamide]	9.00	
CCN1CCN(c2ccc(-c3cc(Cl)c4cn(C(C(=O)Nc5nccs5)c5ncn6c5CCC6)nc4c3Cl)cc2)CC1 (stereo not drawn) [Example 13, 2-(4,7-Dichloro-6-(4-(4-ethylpiperazin-1-yl)phenyl)-2H-indazol-2-yl)-2-(6,7-dihydro-5H-pyrrolo[1,2-c]imidazol-1-yl)-N-(thiazol-2-yl)acetamide]	9.00	7.96

The remaining lines, values ahead:

pIC50 [1]	pIC50 [2]	SMILES
9.00		COc1c(-c2ccc3c(c2)CCC(=O)N3C)cc(Cl)c2cn(C(C(=O)Nc3nccs3)c3ncn4c3C[C@@H](F)C4)nc12 (mixture of isomers) [Example 20, 2-[4-Chloro-7-methoxy-6-(1-methyl-2-oxo-3,4-dihydroquinolin-6-yl)indazol-2-yl]-2-[rac-(6R)-6-fluoro-6,7-dihydro-5H-pyrrolo[1,2-c]imidazol-1-yl]-N-(1,3-thiazol-2-yl)acetamide]
8.52		CCN1CCN(c2ccc(-c3cc(Cl)c4cn(C(C(=O)Nc5nccs5)c5ncn6c5C[C@@H](F)C6)nc4c3OC)cc2)CC1 (mixture of isomers) [Example 21, 2-[4-Chloro-6-[4-(4-ethylpiperazin-1-yl)phenyl]-7-methoxyindazol-2-yl]-2-[rac-(6R)-6-fluoro-6,7-dihydro-5H-pyrrolo[1,2-c]imidazol-1-yl]-N-(1,3-thiazol-2-yl)acetamide]
8.30		COc1c(-c2ccc(C3CCN(C4CC4)CC3)cc2)cc(Cl)c2cn(C(C(=O)Nc3nccs3)c3ncn4c3C[C@@H](F)C4)nc12 (mixture of isomers) [Example 22, 2-[4-Chloro-6-[4-(1-cyclopropylpiperidin-4-yl)phenyl]-7-methoxyindazol-2-yl]-2-[rac-(6R)-6-fluoro-6,7-dihydro-5H-pyrrolo[1,2-c]imidazol-1-yl]-N-(1,3-thiazol-2-yl)acetamide]
8.70		O=C(Nc1nccs1)C(c1ncn2c1CCC2)n1cc2c(Cl)cc(-c3ccc(N4CCNCC4)cc3)c(F)c2n1 (stereo not drawn) [Example 15, 2-(4-Chloro-7-fluoro-6-(4-(piperazin-1-yl)phenyl)-2H-indazol-2-yl)-2-(6,7-dihydro-5H-pyrrolo[1,2-c]imidazol-1-yl)-N-(thiazol-2-yl)acetamide hydrochloride]
8.70		CCN1CCN(c2ccc(-c3cc(Cl)c4cn(C(C(=O)Nc5nccs5)c5ncn6c5CCC6)nc4c3F)cc2)CC1 (stereo not drawn) [Example 16, 2-(4-Chloro-6-(4-(4-ethylpiperazin-1-yl)phenyl)-7-fluoro-2H-indazol-2-yl)-2-(6,7-dihydro-5H-pyrrolo[1,2-c]imidazol-1-yl)-N-(thiazol-2-yl)acetamide]
9.00		CN1C(=O)CCc2cc(-c3cc(Cl)c4cn(C(C(=O)Nc5nccs5)c5ncn6c5CCC6)nc4c3F)ccc21 (stereo not drawn) [Example 18, 2-(4-Chloro-7-fluoro-6-(1-methyl-2-oxo-1,2,3,4-tetrahydroquinolin-6-yl)-2H-indazol-2-yl)-2-(6,7-dihydro-5H-pyrrolo[1,2-c]imidazol-1-yl)-N-(thiazol-2-yl)acetamide]
9.00		CC(C)n1ccc(-c2cc(Cl)c3cn(C(C(=O)Nc4nccs4)c4ncn5c4CCC5)nc3c2F)cc1=O (stereo not drawn) [Example 23, 2-(4-Chloro-7-fluoro-6-(1-isopropyl-2-oxo-1,2-dihydropyridin-4-yl)-2H-indazol-2-yl)-2-(6,7-dihydro-5H-pyrrolo[1,2-c]imidazol-1-yl)-N-(thiazol-2-yl)acetamide]
